The nature of data set [1]: In vitro proteolysis assay in human serum. The conditions noted are these: human serum. The data set is classed as in vitro ADME.
Procedure: (§1) Proteolysis was stopped by adding 800 μl of ice-cold stop buffer (potassium-phosphate buffer, acidified to pH 0.8 with trifluoroacetic acid (TFA) and boiling 5 min (rat serum only). After centrifugation (12000 g, 5 min, 4° C.) (rat serum only), serum-peptide mixtures were passed through a conditioned Sep-Pak C-18 cartridge to extract native GHRH or a GHRH analog residual concentrations from serum proteins. The native GHRH or the analog was eluted in 2 ml of 50% acetonitrile-0.01% TFA/50% 0.01% aqueous TFA. 200 μl of extracted peptide, representing 1 μg of GHRH or analog at time 0, was quantified by analytical HPLC, using one μ-Bondapak C18 column (10 μm particle size, 0.39×15 cm) (rat serum) or two C18 columns in series (human serum and plasma) and a binary solvent system composed of NaClO4 0.01 M, pH 2.5 and acetonitrile. A linear gradient from 30 to 60% acetonitrile over 45 min (rat serum) or 30 to 50% (human serum and plasma) was used. Elution of intact peptide was monitored at 214 nm and residual concentration determined by assessment of peak surface areas.
Data set [2] is described as follows: In vitro proteolysis assay in rat serum. The settings on record: incubation 0 min. The data set is classed as in vitro ADME.
Procedure: as §1
For data set [3], the target named is human GHRH receptor (human) (UniProt Q02643). The data set is described as follows: competition with [125I-Tyr10]hGHRH(1-44)NH2, BHK cell membrane preparations expressing the human GHRH receptor. The settings on record: for Relative binding affinity (R1) in comparison with hGHRH(1-29)NH2: scale: ratio IC50 of hGHRH.
In another data set the target is rat GHRH receptor (rat) (UniProt Q02644). As to the kind of experiment: competition with [125I-Tyr10]hGHRH(1-44)-NH2, rat anterior pituitary membrane preparations.
The next data set has as its system Rat Growth Hormone. The data set is described as follows: In vivo GH secretion in adult female Sprague-Dawley rats, single SC or IV injection, RIA. The conditions noted are these: 0.03 mg/kg BW IV. The procedure: In order to assess such use of the GHRH analogs, the following experiments were undertaken. More specially, the goal was to assess the pharmacodynamic and pharmacokinetic profiles and acute toxicity of GHRH analog #5 when administered once by subcutaneous or intravenous injection to female Sprague-Dawley rats followed by a 14-day observation period and the pharmacodynamic profile in a male Beagle dog when the GHRH analog was administered at escalating doses to the same dog by subcutaneous injection with at least 2-day washout period. The above GHRH analog is a variation of a synthetic acetate salt of an amidated synthetic 29-amino acid peptide that corresponds to the amino-terminal segment of the naturally-occurring human growth hormone—releasing hormone (GHRH) with four amino acid substitutions in positions 2, 10, 15, and 22.
Human GHRH analog #5 in 0.9% sodium chloride for injection USP was administered once either by intravenous (IV) or subcutaneous (SC) injection to female rats followed by a 14-day observation period, as shown in Table 2. Prior to administration, all dosing formulations were filtered using a 0.22 μm filter to ensure sterility. The actual amount of GHRH analog #5 administered was calculated and adjusted based on the animal's most recent body weight. Dosing started at approximately the same time each day, commencing at 9:00 am ±30 minutes.
For pharmacodynamic investigations, blood samples (approximately 1.3 ml) were collected from 2 animals per group per time point (maximum 3 time points/animal) via a jugular venipuncture at the following time points: […] All blood samples were collected into potassium EDTA tubes and centrifuged under refrigeration (2 to 8° C., 1500 g for 10 minutes).
Rat Growth Hormone Determination • Plasma GH was determined by Linco Diagnostic Services using their own kit. Linco's Rat Growth Hormone radioimmunoassay kit (RIA) (RGH-45HK) is intended for the quantitative determination of Rat Growth Hormone in serum, plasma, and tissue culture media. It is a completely homologous assay since the antibody was raised against recombinant Rat Growth Hormone and both the tracer and the standard are prepared with the same recombinant Rat Growth Hormone. The kit includes standards, antibody, tracer, quality controls, precipitating reagents and buffer necessary to complete a RIA. The assay was conducted under the following conditions: overnight; equilibrium incubation at room temperature; sample volume: 100 μl serum, plasma, or cell culture media. The label used was 125I-Rat Growth Hormone (20,000 CPM/tube).

The test system of the next data set is Canine Growth Hormone. The data set is described as follows: In vivo GH secretion in a male Beagle dog, escalating SC doses, RIA. The conditions noted are these: 0.01 mg/kg BW SC. An excerpt:
In order to assess such use of the GHRH analogs, the following experiments were undertaken. […] The above GHRH analog is a variation of a synthetic acetate salt of an amidated synthetic 29-amino acid peptide that corresponds to the amino-terminal segment of the naturally-occurring human growth hormone—releasing hormone (GHRH) with four amino acid substitutions in positions 2, 10, 15, and 22.
Prior to administration, all dosing formulations were filtered using a 0.22 μm filter to ensure sterility. […] Dosing started at approximately the same time each day, commencing at 9:00 am ±30 minutes.
For pharmacodynamic investigations, blood samples (approximately 1.0 ml) were collected from the dog on each treatment day via a jugular venipuncture at the following time points: pre-dose, 7, 15, 22, 30, 45, and 60 minutes post dosing. All blood samples were collected into potassium EDTA tubes and centrifuged under refrigeration (2 to 8° C., 1500 g for 10 minutes).
Plasma GH was determined by Linco Diagnostic Services using their own kit. Linco's Porcine/Canine Growth Hormone radioimmunoassay kit (RIA) (PGH-46HK) has been developed to quantitate Growth Hormone in plasma, serum, and tissue culture media. It is a completely homologous assay since the antibody was raised against recombinant Porcine Growth Hormone and both the standard and tracer are prepared with recombinant Porcine Growth Hormone. Since the amino acid sequences of Porcine Growth Hormone and Canine Growth Hormone are identical, this assay developed for Porcine Growth Hormone measures Canine Growth Hormone levels with equal efficiency. All components are included (standards, antibody, tracer, quality controls, precipitating reagents and buffer) necessary to complete a RIA. The assay was conducted under the following conditions: overnight; equilibrium incubation at room temperature; sample volume: 100 μl serum, plasma, or cell culture media.

In general, IC50 refers to the concentration at which inhibition is half-maximal.

In the case of `CC[C@H](C)[C@H](NC(=O)[C@H](C)NC(=O)[C@H](CC(=O)O)NC(=O)[C@H](C)NC(=O)[C@@H](N)Cc1ccc(O)cc1)C(=O)N[C@@H](Cc1ccccc1)C(=O)N[C@H](C(=O)N[C@@H](CC(N)=O)C(=O)N[C@@H](CO)C(=O)N[C@@H](Cc1ccc(O)cc1)C(=O)N[C@@H](CCCNC(=N)N)C(=O)N[C@@H](CCCCN)C(=O)N[C@H](C(=O)N[C@@H](CC(C)C)C(=O)NCC(=O)N[C@@H](CCC(N)=O)C(=O)N[C@@H](CC(C)C)C(=O)N[C@@H](CO)C(=O)N[C@@H](C)C(=O)N[C@@H](CCCNC(=N)N)C(=O)N[C@@H](CCCCN)C(=O)N[C@@H](CC(C)C)C(=O)N[C@@H](CC(C)C)C(=O)N[C@@H](CCC(N)=O)C(=O)N[C@@H](CC(=O)O)C(=O)N[C@H](C(=O)N[C@@H](CCSC)C(=O)N[C@@H](CO)C(=O)N[C@@H](CCCNC(=N)N)C(N)=O)[C@@H](C)CC)C(C)C)[C@@H](C)O` [hGHRH(1-29)NH2, reference compound], the “Mean residual amount (%)” value is listed as 100% in data set [1] (IT 0 min) and “disappeared totally” in data set [1] (IT 420 min). Further, the “Residual concentration (% of initial concentration)” value in data set [2] is recorded as 100 ± 0 % of initial concentration.

On to “[Ala8, Ala9, Ala15, Ala22] hGHRH(1-29)-NH2 (peptide)”, for which, in data set [3], the IC50 came out at 0.77 nM and the Relative binding affinity (R1) in comparison with hGHRH(1-29)NH2 is 3.7. The compound further displayed a Relative binding affinity in rat anterior pituitary (relative to hGHRH(1-29)-NH2) in the data set with rat GHRH receptor (rat) of 7.74.

On to “[D-Ala2, Ala8, Ala15, Lys22] hGHRH(1-29)-NH2 (peptide)”, for which, in data set [3], the half-maximal inhibitory concentration (IC50) came to 0.033 nM and the Relative binding affinity (R1) in comparison with hGHRH(1-29)NH2 was found to be 499. Further, the Relative binding affinity in rat anterior pituitary (relative to hGHRH(1-29)-NH2) in the data set with rat GHRH receptor (rat) was 13.3.

For “[D-Ala2, Ala8, D-Tyr10, Ala15, D-Lys21, Lys22] hGHRH(1-29)-NH2 (peptide)”, in data set [3], the IC50 is 37 nM and the Relative binding affinity (R1) in comparison with hGHRH(1-29)NH2 was determined as 0.05. Moreover, the Relative binding affinity in rat anterior pituitary (relative to hGHRH(1-29)-NH2) with rat GHRH receptor (rat) was determined as 5.

Regarding “[D-Ala2, D-Tyr10, Lys22] hGHRH(1-29)-NH2 (peptide)”, in data set [3], the half-inhibitory concentration (IC50) came to 0.0063 nM and the Relative binding affinity (R1) in comparison with hGHRH(1-29)NH2 turned out to be 239. Moreover, in the data set with rat GHRH receptor (rat), the Relative binding affinity in rat anterior pituitary (relative to hGHRH(1-29)-NH2) is 4.9.

hGHRH(1-44)NH2 [reference compound]: the “Plasma Rat Growth Hormone” value in the data set with Rat Growth Hormone (4 min) worked out at 43.7 ng/mL; with Rat Growth Hormone (10 min), 83.9 ng/mL; in the data set on Rat Growth Hormone (15 min), 27.9 ng/mL; with Rat Growth Hormone (45 min), 14.1 ng/mL; in the data set on Rat Growth Hormone (300 min), 21.7 ng/mL; in the data set with Rat Growth Hormone (−120 min), 20.2 ng/mL. The “GH AUC 45 min” value with Rat Growth Hormone (in ng·min/mL (unit assumed)) came out at 1380. Also, in the data set with Rat Growth Hormone (in ng·min/mL (unit assumed)), the “GH AUC 300 min” value is given as 5754. For the same compound, the “Canine Growth Hormone” value was determined as 5 ng/mL in the data set on Canine Growth Hormone (0 min); 1 ng/mL with Canine Growth Hormone (7 min); 1.99 ng/mL with Canine Growth Hormone (15 min); 4 ng/mL in the data set with Canine Growth Hormone (22 min); 5 ng/mL with Canine Growth Hormone (30 min); 3 ng/mL in the data set with Canine Growth Hormone (45 min). Moreover, the “Canine Growth Hormone” value with Canine Growth Hormone (60 min) stood at 1.99 ng/mL.

For the origin of these results see patent publication US20090088380A1, “GHRH ANALOGS AND THERAPEUTIC USES THEREOF” (priority 2007, published 2009).
